Source: the supplement of paper PMC11061612

Tests used:
[1] = compound: Cc1cc2ncnn2cc1Nc1ncc2c(n1)n(C1CCOCC1)c(=O)n2C [AZD7648]; conditions: max 10 µM
Outline: (§1)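 Cancer cell lines were seeded into 1536-well plates in 7.5 μl medium (DMEM/F12 or RPMI, 10% FBS), held 24 hours at 37°C and 5% CO2, and dosed for 72 hours with final DMSO typically 0.2%. Luminescence from CellTiter-Glo 2.0, scaled between blank-well and DMSO-well means, served as viability. The single-agent IC50 was obtained from dose-response fits with a non-linear mixed effects model, each fit being a two-parameter logistic curve.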

[2] = compound: CN(CC[C@H](CSC1=CC=CC=C1)NC2=C(C=C(C=C2)S(=O)(=O)NC(=O)C3=CC=C(C=C3)N4CCC(CC4)[C@H](C5=CC=CC=C5C6=CC=C(C=C6)Cl)O)S(=O)(=O)C(F)(F)F)CCO [AZD4320]; conditions: max 1 µM
Outline: as §1

[3] = compound: COc1cccc(OCCCN)c1-c1cc(Nc2cnc(C#N)cn2)n[nH]1 [Prexasertib]; conditions: max 1 µM
Outline: as §1

[4] = compound: C[C@@H]1COCCN1C2=NC(=NC(=C2)C3(CC3)[S@](=N)(=O)C)C4=C5C=CNC5=NC=C4 [AZD6738]; conditions: max 10 µM
Outline: as §1

[5] = compound: NC1(c2ccc(-c3nc4ccn5c(=O)[nH]nc5c4cc3-c3ccccc3)cc2)CCC1 [MK-2206]; conditions: max 10 µM
Outline: as §1

[6] = compound: C[C@@H](Nc1cc(F)cc(F)c1)c1cc(C(=O)N(C)C)cc2c(=O)cc(N3CCOCC3)oc12 [AZD8186]; conditions: max 3 µM
Outline: as §1

[7] = compound: C=CCn1c(=O)c2cnc(Nc3ccc(N4CCN(C)CC4)cc3)nc2n1-c1cccc(C(C)(C)O)n1 [AZD1775]; conditions: max 3 µM
Outline: as §1

[8] = compound: COc1cccc2c1C(=O)c1c(O)c3c(c(O)c1C2=O)C[C@@](O)(C(=O)CO)C[C@@H]3O[C@H]1C[C@H](N)[C@H](O)[C@H](C)O1 [Doxorubicin]; conditions: max 1 µM
Outline: as §1

[9] = compound: CS(=O)(=O)CCNCc1ccc(-c2ccc3ncnc(Nc4ccc(OCc5cccc(F)c5)c(Cl)c4)c3c2)o1 [Lapatinib]; conditions: max 10 µM
Outline: as §1

[10] = compound: C[C@@H](Oc1cc(-c2cnn(C3CCNCC3)c2)cnc1N)c1c(Cl)ccc(F)c1Cl [Crizotinib]; conditions: max 10 µM
Outline: as §1

[11] = compound: Cc1c2c(nn1C)CSCc1cc(n(C)n1)CSc1cc(c3ccccc3c1)OCCCc1c(C(=O)O)n(C)c3c-2c(Cl)ccc13 [AZD5991]; conditions: max 1 µM
Outline: as §1

[12] = compound: Cn1cnc2c(F)c(Nc3ccc(Br)cc3Cl)c(C(=O)NOCCO)cc21 [Selumetinib]; conditions: max 10 µM
Outline: as §1

[13] = compound: C[C@@H](c1ccc2nccn2c1)n1nnc2ncc(-c3cnn(C)c3)nc21 [Savolitinib]; conditions: max 1 µM
Outline: as §1

[14] = compound: COc1nnc2ccc(N3CCC(c4ccc(OCCN5CCN(C)C(=O)[C@H]5C)cc4)CC3)nn12 [AZD5153]; conditions: max 1 µM
Outline: as §1

[15] = compound: CC1=CN2[C@@H](C1)C=NC3=CC(=C(C=C3C2=O)OC)OCCCCCOC4=C(C=C5C(=C4)N=C[C@@H]6CC(=CN6C5=O)C)OC [SG3199]; conditions: max 0.001 µM
Outline: as §1

[16] = compound: C1CN(CCC1(C(=O)N[C@@H](CCO)C2=CC=C(C=C2)Cl)N)C3=NC=NC4=C3C=CN4 [Capivasertib]; conditions: max 10 µM
Outline: as §1

[17] = compound: CC1(C)CCC(CN2CCN(c3ccc(C(=O)NS(=O)(=O)c4ccc(NCC5CCOCC5)c([N+](=O)[O-])c4)c(Oc4cnc5[nH]ccc5c4)c3)CC2)=C(c2ccc(Cl)cc2)C1 [Venetoclax]; conditions: max 1 µM
Outline: as §1

[18] = compound: Cc1nc(-c2cn3c(n2)-c2ccc(-c4cnn(C(C)(C)C(N)=O)c4)cc2OCC3)n(C(C)C)n1 [Taselisib]; conditions: max 10 µM
Outline: as §1

[19] = compound: CCc1c2c(nc3ccc(O)cc13)-c1cc3c(c(=O)n1C2)COC(=O)[C@]3(O)CC [SN-38]; conditions: max 0.3 µM
Outline: as §1

[20] = compound: COc1cc2ncnc(Nc3ccc(F)c(Cl)c3)c2cc1OCCCN1CCOCC1 [Gefitinib]; conditions: max 10 µM
Outline: as §1

[21] = compound: O=C(c1cc(Cc2n[nH]c(=O)c3ccccc23)ccc1F)N1CCN(C(=O)C2CC2)CC1 [Olaparib]; conditions: max 10 µM
Outline: as §1

[22] = compound: CC(C)n1c(=O)n(C)c2cnc3cc(F)c(-c4ccc(OCCCN5CCCCC5)nc4)cc3c21 [AZD1390]; conditions: max 0.3 µM
Outline: as §1

[23] = compound: CN(C)CCCOc1ccc(-c2ccc3ncc4c(c3c2)n(C2CCOCC2)c(=O)n4C)cn1 [AZD0156]; conditions: max 3 µM
Outline: as §1

[24] = compound: CC(=O)Nc1cccc(-n2c(=O)n(C3CC3)c(=O)c3c(Nc4ccc(I)cc4F)n(C)c(=O)c(C)c32)c1 [Trametinib]; conditions: max 1 µM
Outline: as §1

[25] = compound: CC1=C(C(=CC=C1)Cl)NC(=O)C2=CN=C(S2)NC3=CC(=NC(=N3)C)N4CCN(CC4)CCO [Dasatinib]; conditions: max 2 µM
Outline: as §1

[26] = compound: CCN(CCO)CCCOc1ccc2c(Nc3cc(CC(=O)Nc4cccc(F)c4)[nH]n3)ncnc2c1 [AZD2811]; conditions: max 1 µM
Outline: as §1

[27] = compound: COc1cc(Nc2ncc3c(n2)-c2ccc(Cl)cc2C(c2c(F)cccc2OC)=NC3)ccc1C(=O)O [Alisertib]; conditions: max 10 µM
Outline: as §1

[28] = compound: CC(=O)c1c(C)c2cnc(Nc3ccc(N4CCNCC4)cn3)nc2n(C2CCCC2)c1=O [Palbociclib]; conditions: max 10 µM
Outline: as §1

Cell Line | IC50, cell viability 72 h [1] [nM] | IC50, cell viability 72 h [2] [nM] | IC50, cell viability 72 h [3] [nM] | IC50, cell viability 72 h [4] [nM] | IC50, cell viability 72 h [5] [nM] | IC50, cell viability 72 h [6] [nM] | IC50, cell viability 72 h [7] [nM] | IC50, cell viability 72 h [8] [nM] | IC50, cell viability 72 h [9] [nM] | IC50, cell viability 72 h [10] [nM] | IC50, cell viability 72 h [11] [nM] | IC50, cell viability 72 h [12] [nM] | IC50, cell viability 72 h [13] [nM] | IC50, cell viability 72 h [14] [nM] | IC50, cell viability 72 h [15] [nM] | IC50, cell viability 72 h [16] [nM] | IC50, cell viability 72 h [17] [nM] | IC50, cell viability 72 h [18] [nM] | IC50, cell viability 72 h [19] [nM] | IC50, cell viability 72 h [20] [nM] | IC50, cell viability 72 h [21] [nM] | IC50, cell viability 72 h [22] [nM] | IC50, cell viability 72 h [23] [nM] | IC50, cell viability 72 h [24] [nM] | IC50, cell viability 72 h [25] [nM] | IC50, cell viability 72 h [26] [nM] | IC50, cell viability 72 h [27] [nM] | IC50, cell viability 72 h [28] [nM]
B-CPAP (Thyroid Gland Carcinoma) | > 10000 | > 1000 | 149 | > 10000 | > 10000 | > 3000 | 1420 | 608 | > 10000 | > 10000 | > 1000 | > 10000 | > 1000 | 379 | > 1 | > 10000 | > 1000 | > 10000 | 25 | > 10000 | > 10000 | > 300 | > 3000 | > 1000 | 324 | > 1000 | 6620 | > 10000
HCC1806 (Breast Carcinoma) | > 10000 | > 1000 | 6.18 | 1080 | > 10000 | > 3000 | 271 | 258 | 6200 | 9230 | > 1000 | > 10000 | > 1000 | 301 | > 1 | > 10000 | > 1000 | 7680 | 12.1 | > 10000 | > 10000 | > 300 | > 3000 | > 1000 | 414 | > 1000 | > 10000 | > 10000
HuP-T4 (Pancreatic Carcinoma) | > 10000 | > 1000 | 175 | > 10000 | – | > 3000 | 1000 | 946 | > 10000 | > 10000 | > 1000 | > 10000 | > 1000 | > 1000 | > 1 | > 10000 | > 1000 | > 10000 | 8.7 | > 10000 | > 10000 | > 300 | > 3000 | > 1000 | > 2000 | > 1000 | > 10000 | > 10000
KP-1N (Pancreatic Carcinoma) | > 10000 | > 1000 | > 1000 | > 10000 | – | > 3000 | > 3000 | > 1000 | > 10000 | > 10000 | > 1000 | > 10000 | > 1000 | > 1000 | > 1 | > 10000 | > 1000 | > 10000 | > 300 | > 10000 | > 10000 | > 300 | > 3000 | > 1000 | > 2000 | > 1000 | > 10000 | > 10000
KYSE-520 (Esophageal Squamous Cell Carcinoma) | > 10000 | > 1000 | 116 | > 10000 | – | > 3000 | > 3000 | > 1000 | 3080 | > 10000 | > 1000 | > 10000 | > 1000 | 278 | > 1 | > 10000 | > 1000 | 1250 | > 300 | 3920 | > 10000 | > 300 | > 3000 | 181 | 233 | > 1000 | > 10000 | > 10000
LNCaP-Clone-FGC (Prostate Carcinoma) | > 10000 | > 1000 | 35.6 | 3580 | – | 129 | 811 | 170 | > 10000 | 8700 | > 1000 | > 10000 | > 1000 | 94.4 | > 1 | 134 | > 1000 | 957 | 30.8 | > 10000 | > 10000 | > 300 | > 3000 | > 1000 | > 2000 | > 1000 | > 10000 | > 10000
LU-135 (Small Cell Lung Carcinoma) | > 10000 | 17.6 | 343 | 6100 | – | > 3000 | 1840 | 214 | 9730 | 2590 | > 1000 | > 10000 | > 1000 | 66.1 | > 1 | > 10000 | > 1000 | > 10000 | 27.9 | > 10000 | > 10000 | > 300 | > 3000 | > 1000 | > 2000 | 25.7 | 317 | > 10000
